Experimental data reported in ChEMBL document CHEMBL1130498, “Synthesis of conformationally constrained analogues of BRL-32872. Determination of stereochemistry and related pharmacological properties” (Bioorg Med Chem Lett, 1997).
Where “and” joins values, the source holds several entries; their conditions need not be identical. Equal entries are not always repeated.

Test: Hill coefficient was evaluated

Row | Hill coefficient | SMILES
1 | 1.01 and 1.18 | COc1ccc(CCN2C3CC[C@@H]2[C@@H](N(C(=O)c2ccc([N+](=O)[O-])cc2)c2ccc(OC)c(OC)c2)C3)cc1OC
2 | 1.37 and 0.93 | COc1ccc(CCN2C3CC[C@@H]2[C@H](N(C(=O)c2ccc([N+](=O)[O-])cc2)c2ccc(OC)c(OC)c2)C3)cc1OC
